Series [1] has as its target T1, Cytochrome P450 11B2, mitochondrial (Homo sapiens, UniProt P19099).
T1 sequence (P19099 whole entry): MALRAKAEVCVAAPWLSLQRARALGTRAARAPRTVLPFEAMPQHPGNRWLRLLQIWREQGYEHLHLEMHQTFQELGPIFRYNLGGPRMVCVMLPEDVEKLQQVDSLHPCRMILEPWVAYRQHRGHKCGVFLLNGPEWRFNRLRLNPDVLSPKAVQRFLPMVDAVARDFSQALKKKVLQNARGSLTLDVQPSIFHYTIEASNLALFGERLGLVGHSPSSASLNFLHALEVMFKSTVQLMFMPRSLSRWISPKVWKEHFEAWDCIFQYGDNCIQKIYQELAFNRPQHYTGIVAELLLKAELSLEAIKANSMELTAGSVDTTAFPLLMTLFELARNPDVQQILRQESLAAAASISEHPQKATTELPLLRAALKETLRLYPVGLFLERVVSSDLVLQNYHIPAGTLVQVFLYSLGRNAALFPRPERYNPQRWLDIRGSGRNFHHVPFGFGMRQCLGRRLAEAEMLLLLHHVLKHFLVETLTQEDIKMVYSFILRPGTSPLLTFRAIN
Kind of series: Inhibition of human CYP11B2-CLE9 expressed in chinese hamster V79 cells using 11-deoxycorticosterone as substrate preincubated for 1 hr followed by substrate addition measured for 3 hrs by HTRF assay. It is filed as cell-based.

The next series concerns CYP11B1 / CYP11B2. Kind of series: Selectivity ratio of IC50 for human CYP11B1-8C7 expressed in chinese hamster V79 cells to IC50 for human CYP11B2-CLE9 expressed in chinese hamster V79 cells. The series is classed as ADME, cell-based. Conditions: read-out: Ratio IC50.
The target of series [2] is T2, Cytochrome P450 11B1, mitochondrial (Homo sapiens, UniProt P15538).
T2 sequence (P15538 whole entry): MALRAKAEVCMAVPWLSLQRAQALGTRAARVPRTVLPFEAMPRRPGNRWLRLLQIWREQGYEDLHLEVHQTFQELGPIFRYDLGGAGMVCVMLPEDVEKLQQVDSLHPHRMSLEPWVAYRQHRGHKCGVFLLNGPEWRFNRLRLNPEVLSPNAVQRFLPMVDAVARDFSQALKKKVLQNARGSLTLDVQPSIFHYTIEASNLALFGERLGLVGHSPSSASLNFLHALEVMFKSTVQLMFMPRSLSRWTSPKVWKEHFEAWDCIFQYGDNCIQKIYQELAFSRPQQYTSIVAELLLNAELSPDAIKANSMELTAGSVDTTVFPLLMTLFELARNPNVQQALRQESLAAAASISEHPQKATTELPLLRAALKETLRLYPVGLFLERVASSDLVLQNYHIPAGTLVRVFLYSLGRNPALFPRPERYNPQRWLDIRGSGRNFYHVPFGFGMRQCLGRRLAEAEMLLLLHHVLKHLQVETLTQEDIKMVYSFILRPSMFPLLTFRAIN
Nature of the series: Inhibition of human CYP11B1-8C7 expressed in chinese hamster V79 cells using 11-deoxycortisol as substrate preincubated for 1 hr followed by substrate addition measured for 3 hrs by HTRF assay. It is filed as ADME, cell-based. On the technique in general: In TR-FRET formats the signal depends on donor and acceptor labels being close together.

Series [3] can be described thus: Clearance in Sprague-Dawley rat plasma at 1 mg/kg, iv or 2 mg/kg administered via oral gavage by LC-MS/MS analysis. It is filed as ADME, organism-based.
Series [4] can be described thus: Ratio of IC50 for human CYP17 expressed in African green monkey COS7 cells to IC50 for human CYP11B2-CLE9 expressed in chinese hamster V79 cells. Further details: species or system COS-7.
Series [5] is described as follows: Dose normalized AUC in Sprague-Dawley rat at 2 mg/kg administered via oral gavage by LC-MS/MS analysis. The series is classed as ADME, organism-based. The conditions noted are these: in vivo.
Series [6] in a line: Ratio of IC50 for CYP21 (unknown origin) to IC50 for human CYP11B2-CLE9 expressed in chinese hamster V79 cells.
A short description of series [7]: Half life in Sprague-Dawley rat plasma at 1 mg/kg, iv or 2 mg/kg administered via oral gavage by LC-MS/MS analysis. It is filed as ADME, organism-based.
The nature of series [8]: Oral bioavailability in Sprague-Dawley rat at 2 mg/kg administered via gavage by LC-MS/MS analysis. The series is classed as ADME, organism-based. Conditions: in vivo.
Series [9] can be described thus: Ratio of IC50 for CYP19A1 (unknown origin) to IC50 for human CYP11B2-CLE9 expressed in chinese hamster V79 cells.
Series [10] can be described thus: Intrinsic clearance in Sprague-Dawley rat liver microsomes at 0.3 mM preincubated for 10 mins followed by NADPH addition measured up to 45 mins by LC/MS analysis. The series is classed as ADME. The conditions noted are these: read-out: CLH.
Series [11] is described as follows: Lipophilicity, logD of compound by HPLC analysis. The series is classed as physicochemical.
Series [12] in a line: Solubility of the compound in PBS buffer at pH 2. The series is classed as physicochemical.
Series [13] is described as follows: Solubility of the compound in PBS buffer at pH 7. The series is classed as physicochemical.
Series [14] in a line: Dose normalized AUC in Sprague-Dawley rat at 1 mg/kg administered via oral gavage by LC-MS/MS analysis. It is filed as ADME, organism-based. The conditions noted are these: in vivo.
Series [15] in a line: Oral bioavailability in Sprague-Dawley rat at 1 mg/kg administered via gavage by LC-MS/MS analysis. The series is classed as ADME, organism-based. Conditions: in vivo.
Series [16] is described as follows: Clearance in Sprague-Dawley rat plasma at 0.5 mg/kg, iv or 1 mg/kg administered via oral gavage by LC-MS/MS analysis. The series is classed as ADME, organism-based.
Series [17] is described as follows: Half life in Sprague-Dawley rat plasma at 0.5 mg/kg, iv or 1 mg/kg administered via oral gavage by LC-MS/MS analysis. It is filed as ADME, organism-based.

SMILES strings stand for the structures. In brackets after ≈: the same amount, converted by molar mass. Where only a bound is given, the exact number is not on record here.

What is called IC50 is the concentration needed to halve the response being measured. What is called half-life is how long it takes for the measured level to halve. Usually bioavailability stands for dose-corrected exposure relative to a reference, in per cent. The logD is lipophilicity at a set pH, counting ionised and neutral species. In general, solubility refers to the concentration that dissolves in the medium under given conditions.

Turning to `CC1(C)CN(c2cncc(N3CCC4(CC3)CNC(=O)C4)n2)C1`, the IC50 was 34 nM in [1] and 1740 nM in [2]. In the series on CYP11B1 / CYP11B2, the selectivity ratio was 51.
In series [3], `CN1CC2(CCN(c3cncc([C@](C)(O)C(F)(F)F)c3)CC2)CC1=O` gave a clearance of 24 mL/min/kg. Also, the values for the half-maximal inhibitory concentration (IC50) in [1] and in [2] were 32 nM and 1540 nM, respectively. Besides, the selectivity ratio with CYP11B1 / CYP11B2 is 49. For the same compound, the “Ratio IC50” value in series [4], in series [6] and in series [9] was >200 each time. Moreover, the AUC/dose in series [5] came out at 2.15 µM·kg·h/mg. Moreover, the half-life in series [7] was 72 min. In [8], this compound came in with a bioavailability of 91%. The CLint scaled at 300 µM in series [10] was < 20 mL/min/kg.
`c1ccc2c(N3CCC4(CCOC4)CC3)cncc2c1`: the half-inhibitory concentration (IC50) in [1] came out at 13 nM; in [2] it was 387 nM. The same compound displayed a pH-dependent lipophilicity (logD) in series [11] of 2.6. Moreover, in the series with CYP11B1 / CYP11B2, the selectivity ratio turned out to be 24. The figures for the solubility in series [12] and in series [13] were 196 µM (≈ 52.6 µg/mL) and 165 µM (≈ 44.3 µg/mL), respectively. For the same compound, the CLint scaled at 300 µM in series [10] is < 20 mL/min/kg.
`c1ccc2c(N3CCC4(CCCC4)CC3)cncc2c1`: the 50% inhibitory concentration (IC50) in series [1] was determined as 106 nM; in series [2], 1670 nM. The compound further yielded a logD in series [11] of 5.6. In addition, the selectivity ratio in the series with CYP11B1 / CYP11B2 came out at 16. Moreover, the solubility in series [12] is 176 µM (≈ 46.9 µg/mL); in [13], 3 µM (≈ 0.799 µg/mL). Besides, the CLint scaled at 300 µM in series [10] came out at 1290 mL/min/kg.
On to `CN1CC2(CCN(c3cncc([C@@](C)(O)C(F)(F)F)c3)CC2)CC1=O`, for which the results for the half-inhibitory concentration (IC50) in series [1] and in [2] were 448 nM and 10000 nM, respectively. Moreover, in the series with CYP11B1 / CYP11B2, the selectivity ratio was > 22.
For `CC1(C)CN(c2cncc(N3CCC4(CCC(=O)N4)CC3)n2)C1` the same measures were 73 nM, 2190 nM and 30.
Regarding `CN1CC2(CCN(c3cncc4ccccc34)CC2)CC1=O`, the results for the concentration for half-maximal inhibition (IC50) in [1] and in [2] were 228 nM and 2000 nM, respectively. Moreover, the logD in [11] was 1.6. Also, in the series with CYP11B1 / CYP11B2, the selectivity ratio turned out to be 9. For the same compound, the figures for the solubility in series [12] and in series [13] were 149 µM (≈ 44 µg/mL) and 167 µM (≈ 49.3 µg/mL), respectively. The CLint scaled at 300 µM in series [10] turned out to be 76 mL/min/kg.
Consider `CN1CCC2(CCN(c3cncc4ccccc34)CC2)C1=O`, for which the IC50 in series [1] and in series [2] was > 8000 nM each time.
Turning to `c1ccc2c(N3CCC4(CCCO4)CC3)cncc2c1`, the results for the concentration for half-maximal inhibition (IC50) in [1] and in series [2] were 704 nM and 787 nM, respectively. In the series on CYP11B1 / CYP11B2, the selectivity ratio was determined as 1.
For `c1ccc2c(N3CCC4(CC3)COC4)cncc2c1`, in that order: 42 nM, 1590 nM and 37.
With `CC(C)(C)OC(=O)N1CCC2(CCN(c3cncc4ccccc34)CC2)C1`, the results for the IC50 in series [1] and in [2] were 1130 nM and > 8000 nM, respectively. The selectivity ratio with CYP11B1 / CYP11B2 is > 7.
For `CC(=O)N1CCC2(CCN(c3cncc4ccccc34)CC2)C1` the same measures were 1030 nM, 1000 nM and 1.
For the compound `CN1CC2(CCN(c3cncc(N4CC(C)(C)C4)n3)CC2)CC1=O`, the half-inhibitory concentration (IC50) in [1] came out at 94 nM; in series [2], 4460 nM. For the same compound, the selectivity ratio with CYP11B1 / CYP11B2 was determined as 47.
For the compound `c1ccc2c(N3CCC4(CCCCC4)CC3)cncc2c1`, the 50% inhibitory concentration (IC50) in series [1] was 554 nM; in [2] it was 1570 nM. Moreover, in the series on CYP11B1 / CYP11B2, the selectivity ratio amounted to 3.
For `c1ccc2c(N3CCC4(CCNC4)CC3)cncc2c1`, in that order: > 10000 nM, 1310 nM and < 1.
For `C[C@](O)(c1cncc(N2CCC3(CCOC3)CC2)c1)C(F)(F)F`, the IC50 turned out to be 13 nM in series [1] and 355 nM in [2]. In series [14], this compound returned an AUC/dose of 0.85 µM·kg·h/mg. Besides, the bioavailability in [15] came to 100%. Besides, in the series with CYP11B1 / CYP11B2, the selectivity ratio worked out at 28. Further, the clearance in series [16] was 36 mL/min/kg. Besides, the CLint scaled at 300 µM in series [10] is < 20 mL/min/kg. The compound further had a half-life in [17] of 30 min.

Source of the values: ChEMBL document CHEMBL3870364, “Discovery of Spirocyclic Aldosterone Synthase Inhibitors as Potential Treatments for Resistant Hypertension” (ACS Med Chem Lett, 2017).
